Laboratory results as given in the CheMixHub viscosity set.

Assay: xn = mol fraction of the nth substance listed

Clc1cccc2ccccc12 + Cc1ccccc1
viscosity [mPa·s], 101.33 kPa
Conditions	x1 = 0.0995	x1 = 0.1995	x1 = 0.3037	x1 = 0.3973	x1 = 0.4962	x1 = 0.597	x1 = 0.6945	x1 = 0.7972	x1 = 0.8918
298.15 K	0.596	0.711	0.838	0.979	1.16	1.357	1.614	1.941	2.321
303.15 K	0.561	0.665	0.788	0.91	1.074	1.249	1.484	1.764	2.091
308.15 K	0.529	0.626	0.727	0.849	0.995	1.153	1.361	1.616	1.88

Clc1ccccc1 + COc1ccccc1
Conditions	viscosity [mPa·s]
293.15 K, 101.33 kPa, x2 = 0.0976	0.8705
293.15 K, 101.33 kPa, x2 = 0.1922	0.8967
293.15 K, 101.33 kPa, x2 = 0.2893	0.9253
293.15 K, 101.33 kPa, x2 = 0.3873	0.9512
293.15 K, 101.33 kPa, x2 = 0.493	0.9898
293.15 K, 101.33 kPa, x2 = 0.5987	0.967
293.15 K, 101.33 kPa, x2 = 0.7059	1.007
293.15 K, 101.33 kPa, x2 = 0.7916	1.072
293.15 K, 101.33 kPa, x2 = 0.905	1.107
298.15 K, 101 kPa, x2 = 0.0994	0.7921
298.15 K, 101 kPa, x2 = 0.2	0.8143
298.15 K, 101 kPa, x2 = 0.2957	0.8336
298.15 K, 101 kPa, x2 = 0.3982	0.8576
298.15 K, 101 kPa, x2 = 0.5028	0.88
298.15 K, 101 kPa, x2 = 0.6002	0.9024
298.15 K, 101 kPa, x2 = 0.7006	0.9275
298.15 K, 101 kPa, x2 = 0.7995	0.9474
298.15 K, 101 kPa, x2 = 0.8997	0.9779
298.15 K, 101.33 kPa, x2 = 0.0976	0.8217
298.15 K, 101.33 kPa, x2 = 0.1922	0.8474
298.15 K, 101.33 kPa, x2 = 0.2893	0.8642
298.15 K, 101.33 kPa, x2 = 0.3873	0.8824
298.15 K, 101.33 kPa, x2 = 0.493	0.9356
298.15 K, 101.33 kPa, x2 = 0.5987	0.9051
298.15 K, 101.33 kPa, x2 = 0.7059	0.9242
298.15 K, 101.33 kPa, x2 = 0.7916	0.9965
298.15 K, 101.33 kPa, x2 = 0.905	1.037
303.15 K, 101 kPa, x2 = 0.0864	0.7392
303.15 K, 101 kPa, x2 = 0.0994	0.7495
303.15 K, 101 kPa, x2 = 0.1933	0.7667
303.15 K, 101 kPa, x2 = 0.2	0.7657
303.15 K, 101 kPa, x2 = 0.2875	0.79
303.15 K, 101 kPa, x2 = 0.2957	0.785
303.15 K, 101 kPa, x2 = 0.3805	0.8112
303.15 K, 101 kPa, x2 = 0.3982	0.8026
303.15 K, 101 kPa, x2 = 0.4904	0.8348
303.15 K, 101 kPa, x2 = 0.5028	0.8232
303.15 K, 101 kPa, x2 = 0.5826	0.8538
303.15 K, 101 kPa, x2 = 0.6002	0.8438
303.15 K, 101 kPa, x2 = 0.6914	0.8755
303.15 K, 101 kPa, x2 = 0.7006	0.8635
303.15 K, 101 kPa, x2 = 0.779	0.8922
303.15 K, 101 kPa, x2 = 0.7995	0.8808
303.15 K, 101 kPa, x2 = 0.8905	0.9132
303.15 K, 101 kPa, x2 = 0.8997	0.9091
308.15 K, 101 kPa, x2 = 0.0994	0.7047
308.15 K, 101 kPa, x2 = 0.2	0.7212
308.15 K, 101 kPa, x2 = 0.2957	0.7354
308.15 K, 101 kPa, x2 = 0.3982	0.7535
308.15 K, 101 kPa, x2 = 0.5028	0.7693
308.15 K, 101 kPa, x2 = 0.6002	0.7866
308.15 K, 101 kPa, x2 = 0.7006	0.8038
308.15 K, 101 kPa, x2 = 0.7995	0.8201
308.15 K, 101 kPa, x2 = 0.8997	0.8444
313.15 K, 101 kPa, x2 = 0.0994	0.6642
313.15 K, 101 kPa, x2 = 0.2	0.6768
313.15 K, 101 kPa, x2 = 0.2957	0.6921
313.15 K, 101 kPa, x2 = 0.3982	0.7064
313.15 K, 101 kPa, x2 = 0.5028	0.7227
313.15 K, 101 kPa, x2 = 0.6002	0.7366
313.15 K, 101 kPa, x2 = 0.7006	0.7511
313.15 K, 101 kPa, x2 = 0.7995	0.7649
313.15 K, 101 kPa, x2 = 0.8997	0.7855

CCc1ccccc1 + CCCCO
298.15 K, 101.33 kPa
Conditions	viscosity [mPa·s]
x2 = 0.1608	0.666
x2 = 0.2901	0.735
x2 = 0.4235	0.849
x2 = 0.5335	0.999
x2 = 0.6392	1.183
x2 = 0.7407	1.435
x2 = 0.8339	1.756
x2 = 0.9191	2.126

COCCOCCOCCOCCOC + CCCCCCO
viscosity [mPa·s], 100 kPa
Conditions	x2 = 0.1043	x2 = 0.2031	x2 = 0.3014	x2 = 0.4023	x2 = 0.5043	x2 = 0.6003	x2 = 0.7007	x2 = 0.8057	x2 = 0.8986
293.15 K	3.597	3.447	3.317	3.222	3.167	3.167	3.216	3.482	3.977
298.15 K	3.177	3.048	2.933	2.852	2.8	2.797	2.835	3.049	3.453
303.15 K	2.83	2.716	2.617	2.543	2.494	2.488	2.52	2.688	3.023
308.15 K	2.538	2.438	2.35	2.282	2.237	2.227	2.251	2.387	2.661
313.15 K	2.293	2.204	2.124	2.062	2.019	2.007	2.023	2.131	2.356
318.15 K	2.093	2.012	1.94	1.88	1.845	1.826	1.838	1.926	2.111

C=CC(=O)OCC + CCCCCCCCCCO
viscosity [mPa·s], 101.3 kPa
Conditions	x1 = 0.0861	x1 = 0.235	x1 = 0.302	x1 = 0.4261	x1 = 0.5383	x1 = 0.7248	x1 = 0.8036	x1 = 0.8763	x1 = 0.9389	x1 = 0.9688
298.15 K	8.526	5.017	3.969	2.618	1.895	1.076	0.86	0.702	0.602	0.563
308.15 K	6.006	3.812	3.085	2.104	1.515	0.898	0.73	–	0.525	0.497

Clc1ccccc1 + c1ccccc1
Conditions	viscosity [mPa·s]
293.15 K, 101.33 kPa, x1 = 0.143	0.6759
293.3 K, 101.33 kPa, x1 = 0.028	0.6845
293.55 K, 101.33 kPa, x1 = 0.232	0.711
293.65 K, 101.33 kPa, x1 = 0.318	0.7337
298.15 K, 101 kPa, x1 = 0.08	0.613
298.15 K, 101 kPa, x1 = 0.121	0.62
298.15 K, 101 kPa, x1 = 0.162	0.623
298.15 K, 101 kPa, x1 = 0.8	0.718
298.15 K, 101 kPa, x2 = 0.1034	0.7546
298.15 K, 101 kPa, x2 = 0.2016	0.7369
298.15 K, 101 kPa, x2 = 0.303	0.7233
298.15 K, 101 kPa, x2 = 0.4022	0.7072
298.15 K, 101 kPa, x2 = 0.4985	0.6923
298.15 K, 101 kPa, x2 = 0.6048	0.6743
298.15 K, 101 kPa, x2 = 0.6994	0.6625
298.15 K, 101 kPa, x2 = 0.8033	0.6462
298.15 K, 101 kPa, x2 = 0.9031	0.632
303.15 K, 101 kPa, x2 = 0.1126	0.7
303.15 K, 101 kPa, x2 = 0.2016	0.6977
303.15 K, 101 kPa, x2 = 0.2221	0.6855
303.15 K, 101 kPa, x2 = 0.303	0.6794
303.15 K, 101 kPa, x2 = 0.3286	0.6713
303.15 K, 101 kPa, x2 = 0.4322	0.6573
303.15 K, 101 kPa, x2 = 0.4985	0.652
303.15 K, 101 kPa, x2 = 0.5331	0.6432
303.15 K, 101 kPa, x2 = 0.6048	0.6347
303.15 K, 101 kPa, x2 = 0.6314	0.6285
303.15 K, 101 kPa, x2 = 0.6994	0.6217
303.15 K, 101 kPa, x2 = 0.7271	0.6127
303.15 K, 101 kPa, x2 = 0.8033	0.6064
303.15 K, 101 kPa, x2 = 0.8204	0.5964
303.15 K, 101 kPa, x2 = 0.9031	0.5883
303.15 K, 101 kPa, x2 = 0.9113	0.5798
303.15 K, 101.33 kPa, x1 = 0.143	0.6027
308.15 K, 101 kPa, x1 = 0.08	0.537
308.15 K, 101 kPa, x1 = 0.121	0.544
308.15 K, 101 kPa, x1 = 0.162	0.547
308.15 K, 101 kPa, x2 = 0.303	0.6411
308.15 K, 101 kPa, x2 = 0.4022	0.6281
308.15 K, 101 kPa, x2 = 0.4985	0.6109
308.15 K, 101 kPa, x2 = 0.6048	0.5958
308.15 K, 101 kPa, x2 = 0.6994	0.5832
308.15 K, 101 kPa, x2 = 0.8033	0.5679
308.15 K, 101 kPa, x2 = 0.9031	0.5512
313.05 K, 101.33 kPa, x1 = 0.318	0.5743
313.15 K, 101 kPa, x2 = 0.303	0.6041
313.15 K, 101 kPa, x2 = 0.4022	0.5902
313.15 K, 101 kPa, x2 = 0.4985	0.5747
313.15 K, 101 kPa, x2 = 0.6048	0.5628
313.15 K, 101 kPa, x2 = 0.6994	0.5482
313.15 K, 101 kPa, x2 = 0.8033	0.5333
313.15 K, 101 kPa, x2 = 0.9031	0.5146
313.15 K, 101.33 kPa, x1 = 0.028	0.5278
313.15 K, 101.33 kPa, x1 = 0.411	0.5831
313.25 K, 101.33 kPa, x1 = 0.143	0.54
313.25 K, 101.33 kPa, x1 = 0.232	0.5469
313.25 K, 101.33 kPa, x1 = 0.707	0.6187
313.35 K, 101.33 kPa, x1 = 0.512	0.593
313.75 K, 101.33 kPa, x1 = 0.073	0.5223
313.75 K, 101.33 kPa, x1 = 0.568	0.5979
313.75 K, 101.33 kPa, x1 = 0.849	0.6472
318.15 K, 101 kPa, x1 = 0.08	0.475
318.15 K, 101 kPa, x1 = 0.121	0.482
318.15 K, 101 kPa, x1 = 0.162	0.486
322.85 K, 101.33 kPa, x1 = 0.143	0.5005
323.15 K, 101 kPa, x1 = 0.08	0.444
323.15 K, 101 kPa, x1 = 0.121	0.451
323.15 K, 101 kPa, x1 = 0.162	0.454
323.15 K, 101 kPa, x1 = 0.8	0.541
